These are literature values, as cited in US8968801B1, “Supplement composition for supporting DNA repair and method of use” (Cellhealth Technologies Ltd., priority 2011, dated 2015).

The data set concerns ras-transformed human mammary epithelial cells. Conditions: eupatilin derived from artemisia plants (Kim D H, et al. 2004).

Regarding `COc1ccc(-c2cc(=O)c3c(O)c(OC)c(O)cc3o2)cc1OC` [eupatilin], the cell cycle arrest result is reported as “induces cell cycle arrest”.
